{
  "source": "patent US20240358692A1",
  "about": "“TREATMENT OF SCLERODERMA” (Aisa Pharma, Inc., priority 2023, published 2024)",
  "assay_type_in_all_cases": "in vivo, human",
  "key": {"participants with SSc-RP [1]": {"tested_on": "participants with SSc-RP", "test": "Average pain score recorded during weekly RP attacks (11-point Likert scale)", "settings": "Tadalafil 5 mg (n = 4); Table G", "excerpt": "The absolute change in average pain score (11-point Likert scale) of weekly RP attacks from baseline to the end of each Dosing Period will be a secondary outcome variable. The sponsor-developed participant-informed diary will be used to record data. The average pain score of weekly RP attacks is defined as the total pain scores divided by total number of RP attacks within the last 7 days of each dosing period. Average of the last 7 days of screening assessments will be used as baseline for the analysis of all periods. The variable will be calculated similar to frequency data as before."}, "participants with SSc-RP [2]": {"tested_on": "participants with SSc-RP", "test": "Average duration of weekly RP attacks (minutes), patient diary", "settings": "Tadalafil 5 mg", "excerpt": "The absolute change in average duration of weekly RP attacks from baseline to the end of each dosing period was and will be a secondary outcome variable. The sponsor-developed participant-informed diary was and will be used to record data. Average duration of weekly RP attacks is defined as the total duration of RP attacks divided by total number of RP attacks within the last 7 days of each dosing period. Total duration of RP attacks during the last 7 days of screening period divided by the total number of RP attacks will be used as baseline for the analysis of all periods. The variable will be calculated similar to frequency data as before."}, "participants with SSc-RP [3]": {"tested_on": "participants with SSc-RP", "test": "SHAQ - Visual Analog Scale - Finger Ulcers", "excerpt": "The standard, validated, patient reported outcome measures tool for SSc patients, the Scleroderma Health Assessment Questionnaire (SHAQ), will be used to assess the participant qualify of life. Details are attached in the Appendix. The participant quality of life will be scored, and a disability index calculated for each questionnaire completed by the patient at Screening and each in-clinic visit. The absolute change in participant quality of life from baseline to the end of each dosing period will be calculated similar to frequency data as before.\nThe standard, validated, patient reported outcome measures tool for SSc patients, the SHAQ, was collected at the time points specified in the study schedules (FIG. 2 and FIGS. 4A and 4B) to assess the participant's quality of life. The SHAQ included a Raynaud's VAS that will also be reported separately."}, "[4]": {"settings": "Excluding Outliers, ITT Population - Part A, last 7 days of dosing period"}, "[5]": {"settings": "by Baseline RCS, second RCS subgroup of table (not named), ITT Population - Part A"}, "[6]": {"settings": "excluding outliers, 2nd baseline RCS subgroup, ITT Part A"}, "[7]": {"settings": "last 7 days of dosing period, ITT Part A"}, "[8]": {"settings": "Tadalafil 5 mg (N = 5), Day 12, PP Population, Part A"}},
  "data": [
    {"compound": "CN1CC(=O)N2[C@H](c3ccc4c(c3)OCO4)c3[nH]c4ccccc4c3C[C@@H]2C1=O", "note": "[Tadalafil]", "values": [
      {"measurement": "Average Pain Score Change From Baseline [Mean (SD)]", "setting": "participants with SSc-RP [1]", "result": 0.37},
      {"measurement": "Average Duration of Weekly RP Attacks (All Attacks), Mean", "setting": "participants with SSc-RP [2]; [4]", "result": 5.95, "unit": "min"},
      {"measurement": "Average Duration of Weekly RP Attacks (All Attacks), Median", "setting": "participants with SSc-RP [2]; [4]", "result": 5.95, "unit": "min"},
      {"measurement": "Change from Baseline in average duration of weekly symptomatic RP attacks, Mean", "setting": "participants with SSc-RP [2]; [5]", "result": 140.74, "unit": "min"},
      {"measurement": "Change from Baseline in average duration of weekly symptomatic RP attacks, Median", "setting": "participants with SSc-RP [2]; [5]", "result": 140.74, "unit": "min"},
      {"measurement": "Percent Change from Baseline in average duration of weekly symptomatic RP attacks, Mean", "setting": "participants with SSc-RP [2]; [5]", "result": 5.21, "unit": "%"},
      {"measurement": "Percent Change from Baseline in average duration of weekly symptomatic RP attacks, Median", "setting": "participants with SSc-RP [2]; [5]", "result": 5.21, "unit": "%"},
      {"measurement": "Average duration of weekly RP attacks, Change from Baseline, Mean", "setting": "participants with SSc-RP [2]; [6]", "result": -4.98, "unit": "min"},
      {"measurement": "Average duration of weekly RP attacks, Change from Baseline, Median", "setting": "participants with SSc-RP [2]; [6]", "result": -4.98, "unit": "min"},
      {"measurement": "Average duration of weekly RP attacks, Percent Change from Baseline, Mean", "setting": "participants with SSc-RP [2]; [6]", "result": "−45.55", "unit": "%"},
      {"measurement": "Average duration of weekly RP attacks, Percent Change from Baseline, Median", "setting": "participants with SSc-RP [2]; [6]", "result": "−45.55", "unit": "%"},
      {"measurement": "Average Duration of weekly symptomatic RP attacks, Mean", "setting": "participants with SSc-RP [2]; [7]", "result": 412.29, "unit": "min"},
      {"measurement": "Average Duration of weekly symptomatic RP attacks, Median", "setting": "participants with SSc-RP [2]; [7]", "result": 412.29, "unit": "min"},
      {"measurement": "SHAQ Visual Analogue Scale - Finger Ulcers, Change from Baseline, Mean", "setting": "participants with SSc-RP [3]; [8]", "result": 0.250},
      {"measurement": "SHAQ Visual Analogue Scale - Finger Ulcers, Change from Baseline, Median", "setting": "participants with SSc-RP [3]; [8]", "result": 0.000},
      {"measurement": "SHAQ Visual Analogue Scale - Finger Ulcers, Percent Change from Baseline, Mean", "setting": "participants with SSc-RP [3]; [8]", "result": 6.10, "unit": "%"},
      {"measurement": "SHAQ Visual Analogue Scale - Finger Ulcers, Percent Change from Baseline, Median", "setting": "participants with SSc-RP [3]; [8]", "result": 6.10, "unit": "%"},
      {"measurement": "VAS Finger Ulcers Change from Baseline Max", "setting": "participants with SSc-RP [3]; tadalafil 5 mg", "result": 1.00},
      {"measurement": "VAS Finger Ulcers Change from Baseline Mean", "setting": "participants with SSc-RP [3]; tadalafil 5 mg", "result": 0.250},
      {"measurement": "VAS Finger Ulcers Change from Baseline Median", "setting": "participants with SSc-RP [3]; tadalafil 5 mg", "result": 0.000},
      {"measurement": "VAS Finger Ulcers Change from Baseline Min", "setting": "participants with SSc-RP [3]; tadalafil 5 mg", "result": 0.00},
      {"measurement": "VAS Finger Ulcers Change from Baseline Q1", "setting": "participants with SSc-RP [3]; tadalafil 5 mg", "result": 0.000},
      {"measurement": "VAS Finger Ulcers Change from Baseline Q3", "setting": "participants with SSc-RP [3]; tadalafil 5 mg", "result": 0.500},
      {"measurement": "VAS Finger Ulcers Day 12 Max", "setting": "participants with SSc-RP [3]; tadalafil 5 mg", "result": 9.20},
      {"measurement": "VAS Finger Ulcers Day 12 Median", "setting": "participants with SSc-RP [3]; tadalafil 5 mg", "result": 0.050},
      {"measurement": "VAS Finger Ulcers Day 12 Min", "setting": "participants with SSc-RP [3]; tadalafil 5 mg", "result": 0.00},
      {"measurement": "VAS Finger Ulcers Day 12 Q1", "setting": "participants with SSc-RP [3]; tadalafil 5 mg", "result": 0.000},
      {"measurement": "VAS Finger Ulcers Day 12 Q3", "setting": "participants with SSc-RP [3]; tadalafil 5 mg", "result": 4.650},
      {"measurement": "VAS Finger Ulcers Percent Change from Baseline Max", "setting": "participants with SSc-RP [3]; tadalafil 5 mg", "result": 12.2, "unit": "%"},
      {"measurement": "VAS Finger Ulcers Percent Change from Baseline Mean", "setting": "participants with SSc-RP [3]; tadalafil 5 mg", "result": 6.10, "unit": "%"},
      {"measurement": "VAS Finger Ulcers Percent Change from Baseline Median", "setting": "participants with SSc-RP [3]; tadalafil 5 mg", "result": 6.10, "unit": "%"},
      {"measurement": "VAS Finger Ulcers Percent Change from Baseline Min", "setting": "participants with SSc-RP [3]; tadalafil 5 mg", "result": 0.0, "unit": "%"},
      {"measurement": "VAS Finger Ulcers Percent Change from Baseline Q1", "setting": "participants with SSc-RP [3]; tadalafil 5 mg", "result": 0.00, "unit": "%"},
      {"measurement": "VAS Finger Ulcers Percent Change from Baseline Q3", "setting": "participants with SSc-RP [3]; tadalafil 5 mg", "result": 12.20, "unit": "%"}
    ]}
  ]
}
